Measured values from PubChem BioAssay (NCI).
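GI50: concentration for 50% inhibition of growth. Definition used: TGI = concentration required for complete inhibition of growth.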

How the values were obtained:
Experiment in all cases: DTP human tumour cell line panel, 384-well format
786-0 renal = tested on: 786-0 renal
A498 renal = tested on: A498 renal
A549 NSCLC = tested on: A549 NSCLC
ACHN renal = tested on: ACHN renal
BT-549 breast = tested on: BT-549 breast
CCRF-CEM leukemia = tested on: CCRF-CEM leukemia
DU-145 prostate = tested on: DU-145 prostate
EKVX NSCLC = tested on: EKVX NSCLC
HCT-116 colon = tested on: HCT-116 colon
HCT-15 colon = tested on: HCT-15 colon
HL-60(TB) leukemia = tested on: HL-60(TB) leukemia
HOP-62 NSCLC = tested on: HOP-62 NSCLC
HS 578T breast = tested on: HS 578T breast
HT29 colon = tested on: HT29 colon
IGROV1 ovarian = tested on: IGROV1 ovarian
K-562 leukemia = tested on: K-562 leukemia
KM12 colon = tested on: KM12 colon
LOX IMVI melanoma = tested on: LOX IMVI melanoma
MCF7 breast = tested on: MCF7 breast
MDA-MB-468 breast = tested on: MDA-MB-468 breast
MOLT-4 leukemia = tested on: MOLT-4 leukemia
NCI-H226 lung = tested on: NCI-H226 lung
NCI-H23 lung = tested on: NCI-H23 lung
NCI-H322M lung = tested on: NCI-H322M lung
NCI-H460 NSCLC = tested on: NCI-H460 NSCLC
NCI-H522 lung = tested on: NCI-H522 lung
NCI/ADR-RES ovarian = tested on: NCI/ADR-RES ovarian
OVCAR-3 ovarian = tested on: OVCAR-3 ovarian
OVCAR-5 ovarian = tested on: OVCAR-5 ovarian
PC-3 prostate = tested on: PC-3 prostate
RPMI-8226 leukemia = tested on: RPMI-8226 leukemia
RXF 393 renal = tested on: RXF 393 renal
SF-268 CNS = tested on: SF-268 CNS
SF-539 CNS = tested on: SF-539 CNS
SK-MEL-2 melanoma = tested on: SK-MEL-2 melanoma
SK-MEL-28 melanoma = tested on: SK-MEL-28 melanoma
SK-OV-3 ovarian = tested on: SK-OV-3 ovarian
SN12C renal = tested on: SN12C renal
SNB-19 CNS = tested on: SNB-19 CNS
SNB-75 CNS = tested on: SNB-75 CNS
SR leukemia = tested on: SR leukemia
SW-620 colon = tested on: SW-620 colon
T-47D breast = tested on: T-47D breast
U251 glioblastoma = tested on: U251 glioblastoma
UACC-257 melanoma = tested on: UACC-257 melanoma
UACC-62 melanoma = tested on: UACC-62 melanoma
UO-31 renal = tested on: UO-31 renal

## Cn1cc(-c2ccc3c(c2)CCN3C(=O)Cc2cccc(C(F)(F)F)c2)c2c(N)ncnc21
786-0 renal
  GI50: 3.99 µM
  TGI: 16.2 µM
A498 renal
  GI50: 967 nM
  TGI: 17.7 µM
A549 NSCLC
  GI50: 6.71 µM
  TGI: > 61.4 µM
ACHN renal
  GI50: 2250 nM
  TGI: 19.8 µM
BT-549 breast
  GI50: 5 µM
  TGI: 17.6 µM
CCRF-CEM leukemia
  GI50: 2750 nM
  TGI: 7.98 µM
DU-145 prostate
  GI50: 4.16 µM
  TGI: 22.3 µM
EKVX NSCLC
  GI50: 3.03 µM
  TGI: 16.2 µM
HCT-116 colon
  GI50: 4.12 µM
  TGI: 17.1 µM
HCT-15 colon
  GI50: 2690 nM
  TGI: 17.6 µM
HL-60(TB) leukemia
  GI50: 2210 nM
  TGI: 6.42 µM
HOP-62 NSCLC
  GI50: 10.8 µM
  TGI: 30.3 µM
HS 578T breast
  GI50: 1700 nM
  TGI: 7.47 µM
HT29 colon
  GI50: 6.6 µM
  TGI: 19.6 µM
IGROV1 ovarian
  GI50: 5.29 µM
  TGI: 49.9 µM
K-562 leukemia
  GI50: 2550 nM
  TGI: 11.4 µM
KM12 colon
  GI50: 547 nM
  TGI: 18.2 µM
LOX IMVI melanoma
  GI50: 5.67 µM
  TGI: 18.2 µM
MCF7 breast
  GI50: 5.82 µM
  TGI: 20.3 µM
MDA-MB-468 breast
  GI50: 2860 nM
  TGI: 10.7 µM
MOLT-4 leukemia
  GI50: 2150 nM
  TGI: 5.04 µM
NCI-H226 lung
  GI50: 3.82 µM
  TGI: 18.1 µM
NCI-H23 lung
  GI50: 4.28 µM
  TGI: 15.9 µM
NCI-H322M lung
  GI50: 5.96 µM
  TGI: 27.7 µM
NCI-H460 NSCLC
  GI50: 3.9 µM
  TGI: 16.5 µM
NCI-H522 lung
  GI50: 8.97 µM
  TGI: 21.5 µM
NCI/ADR-RES ovarian
  GI50: 5.14 µM
  TGI: 19.7 µM
OVCAR-3 ovarian
  GI50: 8.44 µM
  TGI: 21.6 µM
OVCAR-5 ovarian
  GI50: 15.4 µM
  TGI: 29 µM
PC-3 prostate
  GI50: 9.2 µM
  TGI: 22.6 µM
RPMI-8226 leukemia
  GI50: 4.44 µM
  TGI: 16 µM
RXF 393 renal
  GI50: 1820 nM
  TGI: 8.86 µM
SF-268 CNS
  GI50: 9.26 µM
  TGI: 23.8 µM
SF-539 CNS
  GI50: 6.09 µM
  TGI: 19.2 µM
SK-MEL-2 melanoma
  GI50: 2710 nM
  TGI: 12.4 µM
SK-MEL-28 melanoma
  GI50: 12.5 µM
  TGI: 37.3 µM
SK-OV-3 ovarian
  GI50: 1630 nM
  TGI: 11.4 µM
SN12C renal
  GI50: 1360 nM
  TGI: 8.59 µM
SNB-19 CNS
  GI50: 15.3 µM
  TGI: 42.9 µM
SNB-75 CNS
  GI50: 3.52 µM
  TGI: 14.2 µM
SR leukemia
  GI50: 1470 nM
  TGI: 3.54 µM
SW-620 colon
  GI50: 10.6 µM
  TGI: 22.9 µM
T-47D breast
  GI50: 2910 nM
  TGI: 9.03 µM
U251 glioblastoma
  GI50: 9.54 µM
  TGI: 39.4 µM
UACC-257 melanoma
  GI50: 9.73 µM
  TGI: 31 µM
UACC-62 melanoma
  GI50: 5.44 µM
  TGI: 17.9 µM
UO-31 renal
  GI50: 6.72 µM
  TGI: 28.4 µM
